Test results: publication PMC3853768 (Molecular Pain, 2013)
“Also recorded” adds a separate entry of the source.

How the values were obtained:
residual ICa = type: cell-based, mouse
R-type channels (Cav2.3) = type: cell-based, mouse

Compound | block of residual ICa (residual ICa) | effect on ICa of R-type blocker (R-type channels (Cav2.3))
[Cl][Cd][Cl] [CdCl2] | residual ICa was blocked | –
SNX-482: blocker of R-type channels (Cav2.3), from Peptide Institute (GVDKAGCRYMFGGCSVNDDCCPRLGCHSLFSYCAWDLTFSD; UniProt P56854 1-41, looked up) | – | lack of effect; also recorded: without effect
